IC50 data for 27 compounds are collected here from patent US5015661A, “Chromanes and their pharmaceutical compositions and methods” (Hoffmann-La Roche Inc., priority 1989, dated 1991).

The test addresses superoxide-dependent, iron-promoted lipid peroxidation of native rat heart cardiac lipid liposomes. Nature of the test: Lipid peroxidation inhibition (in vitro testing of antiperoxidative agents, ANTI-OX), hypoxanthine-xanthine oxidase-Fe3+.ADP, rat cardiac liposomes, MDA equivalents. The conditions noted are these: 60 min, 37° C., screened at 1.0 μM, IC50 determined if inhibition ≥ 50%, read-out: ANTI-OX IC-50. The test is classed as biochemical. The procedure:
The test system employs hypoxanthine-xanthine oxidase (XO)-Fe^3+. ADP as the free radical generator and purified, native rat-heart membrane phosphoglyceride in Hepes-KCl buffer, pH 7.4, as the substrate. Inhibition of superoxide-dependent, iron-promoted lipid peroxidation in the linear reaction phase (after 1 hour of reaction) is measured as the net formation of thiobarbituric acid (TBA)-reactive material. In this system, the TBA-reactive material, isolated by HPLC, is exclusively (>95%) malondialdehyde (MDA), a fragmentation end-product arising from fatty acyl hydroperoxides and cyclic endoperoxides. […]
a) Isolation and purification of Rat Cardiac Lipid
Conscious male Sprague-Dawley rats (~275g) maintained on a normal rodent diet were decapitated. The hearts were rapidly removed and perfused via the aorta with ice-cold 10 mM Hepes buffer, pH 7.4. The aorta and atria were removed, and the ventricular tissue was blotted and weighed (wet weight). The hearts were minced on ice with scissors and finally homogenized (100 mg tissue/ml ice-cold buffer) for 15 seconds (3×5 seconds) with a Tekmar Tissumizer at "maximal" setting. The homogenate was filtered through 4-ply cheesecloth, and homogenate lipids were extracted and purified by a modified Bligh-Dyer procedure (M.D. Marshall and M. Kates, Biochem. Biophys. Acta 260, 558 (1972). The cardiac lipids were stored in CHCl3 under nitrogen at -20° C. […]
b) Preparation of Cardiac Liposomes
Liposomes were prepared from extracted and purified, native rat heart cardiac lipid and were used as substrate for free-radical attack. Cardiac lipid (in CHCl3) was placed in a glass flask and evaporated to dryness under nitrogen at room temperature; the flask was gently rotated during evaporation to yield a thin, dry lipid film. The lipid was taken up in 10 mM Hepes-0.145M KCl, pH 7.4, and was resuspended by indirect an aerobic sonification for 15 minutes at room temperature. The liposome suspension was used immediately. […]
c) preparation of Fe^3+ -ADP Chelate
A chelate was formed in Hepes-KCl buffer between Fe^3+ (1.0mM FeCl3, final concentration) and ADP (10mM, final concentration) at pH 7.4 with stirring at room temperature. Chelation was allowed to proceed for 90 minutes prior to use. The chelate was prepared fresh for each days experiments to ensure iron solubility, effective chelation, and valence state. […]
d) Thiobarbituric Acid Reaction or Determination of Malondialdehvde Equivalents Malondialdehyde (MDA) equivalents were measured as thiobarbituric acid (TBA)-reactive material by the following modification of published methods. The reaction mixture. prepared fresh daily, contained water: BHT ([…] BHT in absolute ethanol): TBA (1.5% TBA in 0.2M Tris, pH 7.0) in the volume ratio 1:1:5. To each 1.0 ml of peroxidation reaction assayed (see below), 0.35 ml reaction mixture was added. After thorough mixing, the tubes were incubated in an 80° C. shaking water bath for 30 minutes. After this time, the tubes were plunged into an ice water bath, and the reaction was immediately stopped with 0.5 ml ice-cold 91% TCA followed by 2.0 ml CHCl3 After centrifugation for 30 minutes at 2000 rpm in a Sorval HL-8 rotor (4° C.), the absorbance of the washed, pink upper phase was read at 532 nm. A standard curve (0.8-40.0 nmol MDA) was run with every assay. For each curve, MDA was freshly prepared by acidification of 1,1,3,3 -tetraethoxypropane with 75% TCA-2.3N HCl (0.15 ml acid mixture with 1.0 ml suitably diluted tetraethoxypropane). Computer-assisted regression analysis of the standard curve was used to quantify the molar amounts of MDA equivalents in the experimental samples. […]
e) Lipid peroxidation Reaction
Cardiac liposomes were subjected to superoxidedependent. iron-promoted peroxidation in glass vessels to avoid the well-known antioxidant effects of many common polymerizing agents used to fabricate plastic labware. […]
Take `Cc1c(C)c2c(c(C)c1O)CCC(C)(C#Cc1ccccc1)O2` (racemic) [Example 1, rac-3,4-Dihydro-2,5,7,8-tetramethyl-2-(phenylethynyl)-2H-1-benzopyran-6-ol]: the IC50 worked out at 650 nM.

As to `Cc1c(C)c2c(c(C)c1O)CCC(C)(C#Cc1cccs1)O2` (racemic) [Example 4, rac-3,4-Dihydro-2,5,7,8-tetramethyl-2-[(2-thienyl)ethynyl]-2H-1-benzopyran-6-ol], the IC50 is 900 nM.

For `Cc1c(C)c2c(c(C)c1O)CCC(C)(C#Cc1cccnc1)O2` (racemic) [Example 14, rac-3,4-Dihydro-2,5,7,8-tetramethyl-2-[(3-pyridinyl)ethynyl]-2H-1-benzopyran-6-ol], the IC50 came out at 600 nM.

Take `Cc1c(C)c2c(c(C)c1O)CCC(C)(C#Cc1ccccn1)O2` (racemic) [Example 15, rac-3,4-Dihydro-2,5,7,8-tetramethyl1-2-[(2-pyridinyl)ethynyl]-2H-1-benzopyran-6-ol]: the IC50 is above 1000 nM.

In the case of `Cc1c(C)c2c(c(C)c1O)CCC(C)(C#Cc1csc3ccccc13)O2` (racemic) [Example 16, rac-[2-(Benzo[b]thiophen-3-yl)ethynyl]-3.4-dihydro-2,5,7,8-tetramethyl-2H-1-benzopyran-2H-1-benzopyran-6-ol], the IC50 is 560 nM.

Turning to `COc1ccc(C#CC2(C)CCc3c(C)c(O)c(C)c(C)c3O2)cc1OC(C)=O` (racemic) [Example 20, rac-2-[(3-Acetyloxy-4-methoxyphenyl)ethynyl]-3.4-dihydro-2,5,7,8-tetramethyl-2H-1-benzopyran-6-ol], the IC50 was above 1000 nM.

`COc1cccc(C#CC2(C)CCc3c(C)c(O)c(C)c(C)c3O2)c1` (racemic) [Example 22, rac-3,4-Dihydro-2-(3-methoxyphenyl)ethynyl)-2,5,7,8-tetra-methyl-2H-1-benzopyran-6-ol]: the IC50 was above 1000 nM.

Take `COC(=O)c1cc(C#CC2(C)CCc3c(C)c(O)c(C)c(C)c3O2)ccc1O` (racemic) [Example 23, rac-5-(3,4-Dihydro-6-hydroxy-2,5,7,8-tetramethyl-2H-1-benzopyran-2-yl)ethynyl]-2-hydroxybenzoic acid methyl ester]: the IC50 amounted to 900 nM.

`Cc1c(C)c2c(c(C)c1O)CCC(C)(C#Cc1ccc(-c3cccnc3)cc1)O2` (racemic) [Example 24, rac-3,4-Dihydro-2,5,7,8-tetramethyl-2-{[4-(3-pyridinyl)-phenyl]ethynyl}-2H-1-benzopyran-6-ol]: the IC50 turned out to be 800 nM.

On to `Cc1c(C)c2c(c(C)c1O)CCC(C)(C#Cc1ccc(-c3ccccn3)s1)O2` (racemic) [Example 26, rac-3,4-Dihydro-2,5,7,8-tetramethyl-2-{[5-(2-pyridinyl)-2-thienyl]ethynyl}-2H-1-benzopyran-6-ol], for which the IC50 was 550 nM.

For the compound `COc1cc(C=O)cc(C#CC2(C)CCc3c(C)c(O)c(C)c(C)c3O2)c1O` (racemic) [Example 28, rac-3-[(3,4-Dihydro-6-hydroxy-2,5,7,8-tetramethyl-2H-1-benzopyran-2-yl)ethynyl]-4-hydroxy-5-methoxybenzaldehyde], the IC50 was above 1000 nM.

Regarding `COc1cc(CO)cc(C#CC2(C)CCc3c(C)c(O)c(C)c(C)c3O2)c1O` (racemic) [Example 29, rac-3-[(3,4-Dihydro-6-hydroxy-2,5,7,8-tetramethyl-2H-1-benzopyran-2-yl)ethynyl]-4-hydroxy-5-methoxybenzenemethanol], the IC50 was above 1000 nM.

In the case of `COc1cc(C=NO)cc(C#CC2(C)CCc3c(C)c(O)c(C)c(C)c3O2)c1O` (racemic) [Example 30, rac-3-[(3,4-Dihydro-6-hydroxy-2,5,7,8-tetramethyl-2H-1-benzopyran-2yl)ethynyl]-4-hydroxy-5-methoxybenzaldehydeoxime], the IC50 was above 1000 nM.

Regarding `CCCCc1ccc(C#CC2(C)CCc3c(C)c(O)c(C)c(C)c3O2)s1` (racemic) [Example 31, rac-2-[(5-Butyl-2-thienyl)ethynyl]-3,4-dihydro-2,5,7,8-tetramethyl-2H-1-benzopyran-6-ol], the IC50 was 550 nM.

Regarding `Cc1c(C)c2c(c(C)c1O)CCC(C)(C#Cc1cnc3ccccc3c1)O2` (racemic) [Example 33, rac-3,4-Dihydro-2,5,7,8-tetramethyl-2-(3-quinolinylethynyl)-2H-1-benzopyran-6-ol], the IC50 came to 850 nM.

With `Cc1c(C)c2c(c(C)c1O)CCC(C)(C#Cc1cncc3ccccc13)O2` (racemic) [Example 34, rac-3,4-Dihydro-2-[(4-isoquinolinyl)ethynyl]-2,5,7,8-tetramethyl-2H-1-benzopyran-6-ol], the IC50 is above 1000 nM.

As to `Cc1c(C)c2c(c(C)c1O)CCC(C)(C#Cc1cccc(C(F)(F)F)c1)O2` (racemic) [Example 35, rac-2-{[3-(Trifluoromethyl)phenyl]ethynyl-3,4-dihydro-2,5,7,8-tetramethyl-2H-1-benzopyran-6-ol], the IC50 was found to be 800 nM.

Regarding `Cc1c(C)c2c(c(C)c1O)CCC(C)(C#Cc1ccc(F)c(F)c1)O2` (racemic) [Example 36, rac-2-[(3,4-Difluorophenyl)ethynyl]-3,4-dihydro-2,5,7,8-tetramethyl-2H-1-benzopyran-6-ol], the IC50 is above 1000 nM.

With `Cc1c(C)c2c(c(C)c1O)CCC(C)(C#Cc1cccc3ccccc13)O2` (racemic) [Example 39, rac-3,4-Dihydro-2,5,7,8-tetramethyl-2-(1-naphthyl)ethynyl-2H-1-benzopyran-6-ol], the IC50 was above 1000 nM.

With `Cc1c(C)c2c(c(C)c1O)CCC(C)(C#Cc1ccccc1N)O2` (racemic) [Example 40, rac-2-[(2-Aminophenyl)ethynyl]-3,4-dihydro-2,5,7,8-tetramethyl-2H-1-benzopyran-6-ol], the IC50 was above 1000 nM.

On to `CC(=O)Oc1cc(C#CC2(C)CCc3c(C)c(O)c(C)c(C)c3O2)ccc1OCc1ccccc1` (racemic) [Example 41, rac-2-{[3-Acetyloxy-4-(phenylmethoxy)phenyl]ethynyl}-3,4-dihydro-2,5,7,8-tetramethyl-2H-1-benzopyran-6-ol], for which the IC50 came out at 480 nM.

Consider `Cc1c(C)c2c(c(C)c1O)CCC(C)(C#Cc1ccc(OCc3ccccc3)c(O)c1)O2` (racemic) [Example 43, rac-3,4-Dihydro-2-{[3-hydroxy-4-(phenylmethoxY)phenyl]-ethynyl}-2,5,7,8-tetramethyl-2H-1-benzopyran-6-ol], for which the IC50 is 370 nM.

For `Cc1c(C)c2c(c(C)c1O)CCC(C)(C#Cc1ccccc1O)O2` (racemic) [Example 50 (2-HO-phenyl), rac-3,4-Dihydro-2-[(2-hydroxyphenyl)ethynyl]-2,5,7,8-tetramethyl-2H-1-benzopyran-6-ol], the IC50 stood at 700 nM.

As to `Cc1c(C)c2c(c(C)c1O)CCC(C)(c1cc3ccccc3o1)O2` (racemic) [Example 50 (CH; H, H, H), rac-2-(2-Benzofuranyl)-3,4-dihydro-2,5,7,8-tetramethyl-2H-1-benzopyran-6-ol], the IC50 stood at 1000 nM.

Regarding `Cc1ccc2oc(C3(C)CCc4c(C)c(O)c(C)c(C)c4O3)cc2n1` (racemic) [Example 51, rac-3,4-Dihydro-2-(5-methylfuro[3,2[b]pyridin-2-yl)-2,5,7,8-tetramethyl-2H-1-benzopyran-6ol], the IC50 is above 1000 nM.

With `Cc1c(C)c2c(c(C)c1O)CCC(C)(c1cc3ncccc3o1)O2` (racemic) [Example 52, rac-3,4-Dihydro-2-(furo[3,2-b]pyridine-2-yl)-2,5,7,8-tetramethyl-2H-1-benzopyran-6-ol], the IC50 came to 950 nM.

Consider `CCCc1c(O)c(C(C)=O)cc2cc(C3(C)CCc4c(C)c(O)c(C)c(C)c4O3)oc12` (racemic) [Example 53, rac-1-2-(3,4-Dihydro-6-hydroxy-2,5,7,8-tetramethyl-2H-1-benzopyran-2-yl)-6-hydroxy-7-propylbenzofuran-5-yl]ethanone], for which the IC50 turned out to be 600 nM.
